“And” between values parts separate entries of the source, which are not always exact repeats. Equal entries are not always repeated.
Tests used:
HSV-1 = conditions: concentrations 12-47 μg/ml; cited from earlier work
Cox B1 = conditions: concentrations 12-47 μg/ml; cited from earlier work
8 bacterial strains = conditions: cited from earlier work
[1] = test system: Carnation ring spot virus (CaRSV); assay: Local lesion assay of CaRSV on Chenopodium amaranticolor leaves (test half leaf vs virus+buffer control); format: in vivo; conditions: for Percentage Inhibition of CaRSV, IInd Treatment: compounds after extraction, summary of three experiments; for Percentage Inhibition of CaRSV, IIIrd Treatment: compounds after storing at 0° C.; for No. of Lesions on Test / % inhibition / Average No. of lesions Test / Test (number of lesions): CaRSV; for No. of Lesions on Test: 24 hrs room temperature, ten leaves; for No. of Lesions on Test / % inhibition / Average No. of lesions Test: Chenopodium amaranticolor; for Test (number of lesions): compound stored at 0° C. for two months; for antiviral activity against CaRSV (in words): components tested individually in pure form
Experimental: (§1) Each concentration of whole Tagetes minuta oil and its pure isolated components were applied on 10 leaves so that the average could be taken.
(§2) The whole oil of Tagetes minuta and its pure components i.e. ocimene and dihydrotagetone were tested individually with virus cultures of CaVMV and CaRSV and applied on the leaves of Chenopodium amaranticolor. In all the experiments each concentration of three testing mixtures were applied on ten leaves of Chenopodium amaranticolor palnt. The isolated compounds were stored at 0° C. for two months and the experiments were repeated.
(§3) The Cultures of Carnation ring spot and Carnation vein motto viruses were maintained both in natural host and on Phaseolus vulgaris and Chenopodium quinoa which are maintenance and propagation host of these viruses respectively. For virus culture, leaves of fifteen days old individual virus inoculated host plants with CaVMV and CaRSV were ground in phosphate buffer pH 7.5 and the viruses were extracted separately in crude sap.
(§4) Activity of the above volatile oils were tested against Carnation ring spot and Carnation vein mottle virus in different dilutions. Most of the tests were performed by using 0.5% and 2.5% concentration of essential oils as the phytotoxic effect appeared on Chenopodium amaranticolor leaves, at higher concentrations. The 0.5% and 2.5% concentration of essential oils were mixed with crude sap containing each virus and incubated at room temperature for 24 hrs. After incubation, sap containing virus were inoculated individually on bioassay host Chenopodium amaranticolor after adding Cellite (as abrasive) to monitor the inhibitory effect. Following results were obtained in different concentrations.

[2] = test system: Carnation vein mottle virus (CaVMV); assay: Local lesion assay of CaVMV on Chenopodium amaranticolor leaves (test half leaf vs virus+buffer control); format: in vivo; conditions: for Percentage Inhibition of CaVMV, IInd Treatment: compounds after extraction, summary of three experiments; for Percentage Inhibition of CaVMV, IIIrd Treatment: compounds after storing at 0° C.; for No. of Lesions on Test / % inhibition / Average No. of lesions Test / Test (number of lesions): CaVMV; for No. of Lesions on Test: 24 hrs room temperature, ten leaves; for No. of Lesions on Test / % inhibition / Average No. of lesions Test: Chenopodium amaranticolor; for Test (number of lesions): compound stored at 0° C. for two months; for antiviral activity against CaVMV (in words): components tested individually in pure form
Experimental: as §1, §2, §3, §4

SSV = conditions: in vivo; cited from earlier work
PNRSV = conditions: in vivo; cited from earlier work
CaMV = conditions: in vivo; cited from earlier work
TMV = conditions: except during very early replicative steps following inoculation; cited from earlier work
PVX [3] = conditions: susceptible viruses such as PVX; cited from earlier work
PVX [4] = conditions: cited from earlier work
BGMV = conditions: in vivo; cited from earlier work
HIV replication = conditions: cited from earlier work
mosquito = conditions: in vivo; cited from earlier work
[5] = 0.5% concentration mixed with crude sap
[6] = 2.5% concentration mixed with crude sap

O=c1c(O)c(-c2ccccc2)oc2cc(O)cc(O)c12 [galangin]
antiviral activity against HSV-1 (HSV-1): significant antiviral activity | antiviral activity against Cox B1 (Cox B1): significant antiviral activity

CC12CCC(CC1)C(C)(C)O2 [1,8 cineole]
activity against 8 bacterial strains (8 bacterial strains): exhibited activity

CC12CCC(CC1=O)C2(C)C (stereo not shown) [Camphor, camphor]
activity against 8 bacterial strains (8 bacterial strains): almost inactive

C=CC(C)CC(=O)CC(C)C (stereo not shown) [Dihydrotagetone, dihydrotagetone]
Percentage Inhibition of CaRSV, IInd Treatment ([1]; 0.5%): 71.6% | Percentage Inhibition of CaRSV, IIIrd Treatment ([1]; 0.5%): 100% | Percentage Inhibition of CaRSV, IInd Treatment ([1]; 2.5%): 81.06% | Percentage Inhibition of CaRSV, IIIrd Treatment ([1]; 2.5%): 100% | No. of Lesions on Test [1, 5]: 32 and 41 and 42 | % inhibition ([1]; 0.5% concentration): 72.1% and 70.9% and 72.0% | Average No. of lesions Test ([1]; 0.5% concentration): 4.22 and 4.44 and 5.00 | Test (number of lesions) ([1]; 0.5% concentration): 0 | % inhibition ([1]; 2.5% concentration): 81.8% and 82.0% and 79.4% | Average No. of lesions Test ([1]; 2.5% concentration): 2.8 and 2.5 and 4.0 | Test (number of lesions) ([1]; 2.5% concentration): 0 | antiviral activity against CaRSV (in words) [1]: enhanced antiviral activity | Percentage Inhibition of CaVMV, IInd Treatment ([2]; 0.5%): 72.2% | Percentage Inhibition of CaVMV, IIIrd Treatment ([2]; 0.5%): 100% | Percentage Inhibition of CaVMV, IInd Treatment ([2]; 2.5%): 83.6% | Percentage Inhibition of CaVMV, IIIrd Treatment ([2]; 2.5%): 100% | No. of Lesions on Test [2, 5]: 38 and 40 and 45 | % inhibition ([2]; 0.5% concentration): 73.04% and 73.3% and 70.3% | Average No. of lesions Test ([2]; 0.5% concentration): 4.22 and 4.44 and 5.00 | Test (number of lesions) ([2]; 0.5% concentration): 0 | No. of Lesions on Test [2, 6]: 31 and 25 and 38 | % inhibition ([2]; 2.5% concentration): 83.0% and 87.0% and 81.0% | Average No. of lesions Test ([2]; 2.5% concentration): 3.44 and 2.77 and 4.20 | Test (number of lesions) ([2]; 2.5% concentration): 0 | antiviral activity against CaVMV (in words) [2]: enhanced antiviral activity

NC(=O)c1ncn([C@@H]2O[C@H](CO)[C@@H](O)[C@H]2O)n1 [ribavirin, Ribavirin]
effectiveness against SSV (SSV): relatively or completely ineffective | susceptibility of PNRSV (PNRSV): resistant | effectiveness against CaMV (CaMV): relatively or completely ineffective | susceptibility of TMV (TMV): much less susceptible than other viruses | concentration needed to inhibit local lesion development and to prevent infection (PVX [3]): Approximately 1000 ppm | developing shoots into which virus spread was prevented (PVX [4]; 10 ppm, differentiating calli): 90% | inhibition of PVX in callus culture (PVX [4]; 100 ppm in the medium): not inhibited | effectiveness against BGMV (BGMV): relatively or completely ineffective

C=C/C(C)=C\CC=C(C)C [Ocimene, Z-β-ocimene]
Percentage Inhibition of CaRSV, IInd Treatment ([1]; 0.5%): 67.9% | Percentage Inhibition of CaRSV, IIIrd Treatment ([1]; 0.5%): 100% | Percentage Inhibition of CaRSV, IInd Treatment ([1]; 2.5%): 80.9% | Percentage Inhibition of CaRSV, IIIrd Treatment ([1]; 2.5%): 100% | No. of Lesions on Test [1, 5]: 60 and 65 and 58 | % inhibition ([1]; 0.5% concentration): 69.6% and 66.6% and 67.7% | Average No. of lesions Test ([1]; 0.5% concentration): 6.0 and 6.5 and 5.8 | Test (number of lesions) ([1]; 0.5% concentration): 0 | No. of Lesions on Test [1, 6]: 40 and 25 and 35 | % inhibition ([1]; 2.5% concentration): 80.4% and 81.4% and 81.0% | Average No. of lesions Test ([1]; 2.5% concentration): 4.0 and 2.5 and 3.5 | Test (number of lesions) ([1]; 2.5% concentration): 0 | antiviral activity against CaRSV (in words) [1]: enhanced antiviral activity | Percentage Inhibition of CaVMV, IInd Treatment ([2]; 0.5%): 70.2% | Percentage Inhibition of CaVMV, IIIrd Treatment ([2]; 0.5%): 100% | Percentage Inhibition of CaVMV, IInd Treatment ([2]; 2.5%): 84.3% | Percentage Inhibition of CaVMV, IIIrd Treatment ([2]; 2.5%): 100% | No. of Lesions on Test [2, 5]: 66 and 70 and 65 | % inhibition ([2]; 0.5% concentration): 71.05% and 63.50% and 72.1% | Average No. of lesions Test ([2]; 0.5% concentration): 6.6 and 7.0 and 6.5 | Test (number of lesions) ([2]; 0.5% concentration): 0 | No. of Lesions on Test [2, 6]: 43 and 40 and 38 | % inhibition ([2]; 2.5% concentration): 83.58% and 84.00% and 85.66% | Average No. of lesions Test ([2]; 2.5% concentration): 4.3 and 4.0 and 3.8 | Test (number of lesions) ([2]; 2.5% concentration): 0 | antiviral activity against CaVMV (in words) [2]: enhanced antiviral activity

CC(C)[C@]12CC(=O)[C@H](C)[C@H]1C2 [thujone]
activity against 8 bacterial strains (8 bacterial strains): exhibited activity

CC1=CC[C@@H]([C@@H](C)[C@H]2CC[C@@]3(C)C4=C(C=C(CCC(=O)O)C(=C(C)C)C=C4)CC[C@]23C)OC1=O [Compound 3]
therapeutic index (HIV replication; HIV replication): greater than 71.4 | EC50, inhibition of HIV replication (HIV replication): 1400 µg/mL

C=C/C(C)=C/C(=O)C=C(C)C [5-E Ocimenone]
mosquito larvaecideal activity (mosquito): mosquito larvaecideal activity

Source: patent US20020136789A1, “Use of tagetes minuta oil and its components as antiviral agents” (COUNCIL OF SCIENTIFIC & INDUSTRIAL RESEARCH, priority 2001, published 2002)
